pIC50: −log10 of the molar value. Values belong to the compound of their own block, whether it stands above or below them.
System: 885724-159-R-J1-PDC complex spheroid viability
Assay: Anticancer human tumor 885724-159-R-J1-PDC patient-derived pancreatic adenocarcinoma cell line growth inhibition [GQUAD]
Settings: for pIC50: curve of first compound; for viability, T/C: stronger effect = lower value
Summary of the method: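 Multi-cell-type spheroids of tumor cells with HUVEC and mesenchymal stem cells, treated with drug combinations. Concentrations descend in half-log steps from near clinical Cmax, or from 10 microM where Cmax is unknown; viability read-out.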

[1] = second compound 0.0316 µM, first compound 0.0316 µM
[2] = second compound 0.0316 µM, first compound 0.1 µM
[3] = second compound 0.0316 µM, first compound 0.316 µM
[4] = second compound 0.0316 µM, first compound 1 µM
[5] = second compound 0.0316 µM, first compound 3.16 µM
[6] = second compound 0.0316 µM, first compound 10 µM
[7] = second compound 0.1 µM, first compound 0.0316 µM
[8] = second compound 0.1 µM, first compound 0.1 µM
[9] = second compound 0.1 µM, first compound 0.316 µM
[10] = second compound 0.1 µM, first compound 1 µM
[11] = second compound 0.1 µM, first compound 3.16 µM
[12] = second compound 0.1 µM, first compound 10 µM
[13] = second compound 0.316 µM, first compound 0.0316 µM
[14] = second compound 0.316 µM, first compound 0.1 µM
[15] = second compound 0.316 µM, first compound 0.316 µM
[16] = second compound 0.316 µM, first compound 1 µM
[17] = second compound 0.316 µM, first compound 3.16 µM
[18] = second compound 0.316 µM, first compound 10 µM
[19] = second compound 1 µM, first compound 0.0316 µM
[20] = second compound 1 µM, first compound 0.1 µM
[21] = second compound 1 µM, first compound 0.316 µM
[22] = second compound 1 µM, first compound 1 µM
[23] = second compound 1 µM, first compound 3.16 µM
[24] = second compound 1 µM, first compound 10 µM
[25] = second compound 3.16 µM, first compound 0.0316 µM
[26] = second compound 3.16 µM, first compound 0.1 µM
[27] = second compound 3.16 µM, first compound 0.316 µM
[28] = second compound 3.16 µM, first compound 1 µM
[29] = second compound 3.16 µM, first compound 3.16 µM
[30] = second compound 3.16 µM, first compound 10 µM
[31] = second compound 10 µM, first compound 0.0316 µM
[32] = second compound 10 µM, first compound 0.1 µM
[33] = second compound 10 µM, first compound 0.316 µM
[34] = second compound 10 µM, first compound 1 µM
[35] = second compound 10 µM, first compound 3.16 µM
[36] = second compound 10 µM, first compound 10 µM
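Note: spheroids exposed to agents for seven days before readout.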
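Throughout, for viability, T/C: percent of vehicle control viability where 100% = DMSO wells.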

Structure (SMILES): Nc1ccn(C2OC(CO)C(O)C2(F)F)c(=O)n1 (centres undefined) + CN(C)c1ccc(Nc2c3ccc(NC(=O)CCN4CCCC4)cc3nc3cc(NC(=O)CCN4CCCC4)ccc23)cc1
pIC50 (second compound 0.0316 µM): < 5.00
pIC50 (second compound 0.1 µM): < 5.00
pIC50 (second compound 0.316 µM): < 5.00
pIC50 (second compound 1 µM): < 5.00
pIC50 (second compound 3.16 µM): 5.74
pIC50 (second compound 10 µM): < 5.00
viability, T/C [1]: 79.8%
viability, T/C [2]: 90.2%
viability, T/C [3]: 71%
viability, T/C [4]: 72.9%
viability, T/C [5]: 63.8%
viability, T/C [6]: 66.3%
viability, T/C [7]: 102%
viability, T/C [8]: 89.3%
viability, T/C [9]: 72.8%
viability, T/C [10]: 64.2%
viability, T/C [11]: 68.6%
viability, T/C [12]: 67%
viability, T/C [13]: 89.5%
viability, T/C [14]: 77.8%
viability, T/C [15]: 74.9%
viability, T/C [16]: 56.8%
viability, T/C [17]: 74%
viability, T/C [18]: 59.8%
viability, T/C [19]: 72%
viability, T/C [20]: 60.6%
viability, T/C [21]: 75%
viability, T/C [22]: 51.4%
viability, T/C [23]: 65.2%
viability, T/C [24]: 50.6%
viability, T/C [25]: 76.8%
viability, T/C [26]: 64.1%
viability, T/C [27]: 60.3%
viability, T/C [28]: 47.1%
viability, T/C [29]: 52.5%
viability, T/C [30]: 44.7%
viability, T/C [31]: 72.6%
viability, T/C [32]: 63.9%
viability, T/C [33]: 47.9%
viability, T/C [34]: 61.2%
viability, T/C [35]: 52.1%
viability, T/C [36]: 52.5%

pIC50 (second compound 0.0316 µM): 5.62
pIC50 (second compound 0.1 µM): 5.69
pIC50 (second compound 0.316 µM): 5.75
pIC50 (second compound 1 µM): 5.87
pIC50 (second compound 3.16 µM): 5.98
pIC50 (second compound 10 µM): 6.05
Structure (SMILES): COc1cccc2c1C(=O)c1c(O)c3c(c(O)c1C2=O)CC(O)(C(=O)CO)CC3OC1CC(N)C(O)C(C)O1 (centres undefined) + Cc1cnc(CNC(=O)c2c(=O)c3ccc(N4CCCN(C)CC4)nc3n3c2sc2ccccc23)cn1
viability, T/C [1]: 118%
viability, T/C [2]: 99.5%
viability, T/C [3]: 97.7%
viability, T/C [4]: 79.2%
viability, T/C [5]: 39.8%
viability, T/C [6]: 3.19%
viability, T/C [7]: 106%
viability, T/C [8]: 109%
viability, T/C [9]: 99%
viability, T/C [10]: 83.1%
viability, T/C [11]: 29.6%
viability, T/C [12]: 2.62%
viability, T/C [13]: 96.9%
viability, T/C [14]: 93%
viability, T/C [15]: 89.2%
viability, T/C [16]: 62.6%
viability, T/C [17]: 35.8%
viability, T/C [18]: 4.79%
viability, T/C [19]: 89.7%
viability, T/C [20]: 88.8%
viability, T/C [21]: 85.2%
viability, T/C [22]: 57.2%
viability, T/C [23]: 24.1%
viability, T/C [24]: 2.16%
viability, T/C [25]: 88.1%
viability, T/C [26]: 84.8%
viability, T/C [27]: 73.2%
viability, T/C [28]: 53.6%
viability, T/C [29]: 17.4%
viability, T/C [30]: 0.96%
viability, T/C [31]: 72.2%
viability, T/C [32]: 80.4%
viability, T/C [33]: 74%
viability, T/C [34]: 46.4%
viability, T/C [35]: 12.4%
viability, T/C [36]: 0.74%

— PubChem BioAssay AID2060502 (Molecular Pharmacology Branch, DTP, NCI, 2025)
